According to the supplement of paper PMC10307832:

Legend:
Experiment in all cases: relative viability (nuclei count vs DMSO), 5 days (fraction); higher = more cells survive
[1] = compound: OCc1c[nH]c2ccccc12 [Indole-3-carbinol] + CC(C)C[C@H](NC(=O)[C@H](Cc1ccccc1)NC(=O)c1cnccn1)B(O)O [Bortezomib] (partner 0.002 µM)
Summary of the method: (§1)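 Relative viability divides the nuclei count in treated wells by that in vehicle wells. Lung cancer cell lines were seeded in 1536-well plates, dosed by pin tool the next day, and fixed and stained after 5 days in one step with final 0.05% Triton X-100, 1% formaldehyde and 1 ug/ml Hoechst. Dosing was a single drug or a fixed anchor-drug dose plus five library-drug doses (not always all listed) in √10 steps, and values are medians of duplicate plates imaged at 4×.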

[2] = compound: OCc1c[nH]c2ccccc12 [Indole-3-carbinol] + Cc1cc(Nc2cc(N3CCN(C)CC3)nc(Sc3ccc(NC(=O)C4CC4)cc3)n2)n[nH]1 [Tozasertib] (partner 0.1 µM)
Summary of the method: as §1

[3] = compound: OCc1c[nH]c2ccccc12 [Indole-3-carbinol] + C[C@]1(O)C[C@@H](c2nc(-c3ccc4ccc(-c5ccccc5)nc4c3)c3c(N)nccn32)C1 [Linsitinib] (partner 1 µM)
Summary of the method: as §1

[4] = compound: OCc1c[nH]c2ccccc12 [Indole-3-carbinol] + Nc1nc2[nH]cc(CCc3ccc(C(=O)N[C@@H](CCC(=O)O)C(=O)O)cc3)c2c(=O)[nH]1 [Pemetrexed] (partner 0.2 µM)
Summary of the method: as §1

[5] = compound: OCc1c[nH]c2ccccc12 [Indole-3-carbinol] + N=C(N)NC(=N)NCCc1ccccc1 [Phenformin] (partner 250 µM)
Summary of the method: as §1

Cell Line	relative viability ([1]; first compound 0.253 µM)	relative viability ([1]; first compound 0.8 µM)	relative viability ([1]; first compound 2.53 µM)	relative viability ([1]; first compound 8 µM)	relative viability ([2]; first compound 0.253 µM)	relative viability ([2]; first compound 0.8 µM)	relative viability ([2]; first compound 2.53 µM)	relative viability ([2]; first compound 8 µM)	relative viability ([3]; first compound 0.253 µM)	relative viability ([3]; first compound 0.8 µM)	relative viability ([3]; first compound 2.53 µM)	relative viability ([3]; first compound 8 µM)	relative viability ([4]; first compound 0.253 µM)	relative viability ([4]; first compound 0.8 µM)	relative viability ([4]; first compound 2.53 µM)	relative viability ([4]; first compound 8 µM)	relative viability ([5]; first compound 0.253 µM)	relative viability ([5]; first compound 0.8 µM)	relative viability ([5]; first compound 2.53 µM)	relative viability ([5]; first compound 8 µM)
HARA	1.2	1.06	1.11	1.06	0.119	0.125	0.12	0.179	0.92	0.979	1.06	0.978	0.267	0.239	0.243	0.242	0.484	0.479	0.554	0.435
H3255	0.899	0.852	0.748	0.732	0.691	0.599	0.635	0.58	0.916	0.983	0.928	0.897	0.547	0.54	0.637	0.625	0.397	0.385	0.414	0.343
NCI-H441	0.367	0.938	0.381	0.375	0.551	0.782	0.702	0.595	0.582	0.688	0.576	0.441	0.235	0.283	0.254	0.245	0.883	1.01	0.955	0.797
CAL-12T	0.983	1	0.842	0.819	0.291	0.351	0.335	0.278	0.835	0.846	0.832	0.71	1.28	1.44	1.12	1.24	0.584	0.553	0.58	0.559
NCI-H1437	0.503	0.532	0.498	0.466	0.412	0.439	0.421	0.424	0.986	1.16	1.04	0.894	0.311	0.337	0.312	0.318	0.308	0.323	0.29	0.448
HOP-62	0.989	0.711	0.82	0.521	0.365	0.432	0.391	0.332	1.03	1.06	1.14	0.937	0.284	0.296	0.388	0.376	0.724	0.654	0.671	0.628
EPLC-272H	1.27	0.925	0.985	0.837	0.33	0.267	0.369	0.396	1.38	1.28	1.24	1.11	0.34	0.349	0.36	0.349	0.347	0.292	0.285	0.258
COR-L 105	0.847	0.733	0.812	0.806	0.366	0.385	0.378	0.347	0.693	0.767	0.99	0.65	1.09	0.996	1.19	0.981	0.497	0.408	0.488	0.416
HCC-366	0.986	0.858	1.05	1.09	0.103	0.125	0.0939	0.196	0.663	0.369	0.615	0.705	0.198	0.202	0.179	0.169	0.645	0.61	0.696	0.565
HCC-44	0.911	1.03	0.888	0.869	0.97	0.575	1.11	0.922	0.74	0.705	0.614	0.625	0.679	0.659	0.694	0.541	0.168	0.198	0.187	0.295
NCI-H2009	1.14	1.09	0.998	0.933	0.691	0.862	0.737	0.739	1.24	1.26	1.17	1.13	1.03	1.07	1.07	1.06	0.512	0.515	0.506	0.465
NCI-H23	0.898	1.16	0.846	0.975	0.351	0.359	0.345	0.377	0.668	0.649	0.722	0.485	0.738	0.773	0.844	0.788	0.773	0.815	0.831	0.77
NCI-H1355	1.25	1.18	1.2	1.17	0.525	0.619	0.551	0.564	0.774	0.802	0.764	0.715	1.08	1.08	0.983	1.06	0.48	0.455	0.435	0.462
NCI-H2023	0.903	1.02	0.887	0.939	0.256	0.355	0.366	0.362	0.728	0.667	0.687	0.589	0.245	0.269	0.252	0.258	0.454	0.426	0.434	0.399
NCI-H2087	0.815	0.967	0.963	0.678	0.214	0.294	0.283	0.296	1.07	1.04	1.01	0.915	0.706	0.703	0.705	0.63	0.45	0.525	0.466	0.386
NCI-H838	0.842	0.789	0.856	0.913	0.265	0.308	0.301	0.286	1.09	0.975	1.02	0.951	0.236	0.256	0.265	0.254	0.607	0.526	0.735	0.553
